Laboratory results from ChEMBL document CHEMBL1151757, “Synthesis, radiosynthesis, and biological evaluation of fluorine-18-labeled 2beta-carbo(fluoroalkoxy)-3beta-(3'-((Z)-2-haloethenyl)phenyl)nortropanes: candidate radioligands for in vivo imaging of the serotonin transporter with positron emission tomography” (J Med Chem, 2008).

Columns and labels:
[1] = Ratio of drug uptake in pons to cerebellum in anesthetized cynomolgus monkey after 35 mins postinjection; assay type: ADME, organism-based, Macaca fascicularis; conditions: in vivo
[2] = Ratio of drug uptake in pons to cerebellum in anesthetized cynomolgus monkey after 125 mins postinjection; assay type: ADME, organism-based, Macaca fascicularis; conditions: in vivo
[3] = Ratio of drug uptake in medulla to cerebellum in anesthetized cynomolgus monkey after 85 mins postinjection; assay type: ADME, organism-based, Macaca fascicularis; conditions: in vivo
[4] = Drug uptake in anesthetized cynomolgus monkey brain occipital lobe after 1.5 mins postinjection; assay type: ADME, organism-based, Macaca fascicularis; conditions: in vivo, 0.025 h
[5] = Drug uptake in anesthetized cynomolgus monkey brain occipital lobe after 55 mins postinjection; assay type: ADME, organism-based, Macaca fascicularis; conditions: in vivo
[6] = Drug uptake in anesthetized cynomolgus monkey brain occipital lobe after 85 mins postinjection; assay type: ADME, organism-based, Macaca fascicularis; conditions: in vivo
[7] = Drug uptake in anesthetized cynomolgus monkey brain occipital lobe after 95 mins postinjection; assay type: ADME, organism-based, Macaca fascicularis; conditions: in vivo
[8] = Drug uptake in anesthetized cynomolgus monkey brain occipital lobe after 105 mins postinjection; assay type: ADME, organism-based, Macaca fascicularis; conditions: in vivo, 1.75 h
[9] = Drug uptake in anesthetized cynomolgus monkey brain occipital lobe after 215 mins postinjection; assay type: ADME, organism-based, Macaca fascicularis; conditions: in vivo
[10] = Drug uptake in anesthetized cynomolgus monkey brain frontal lobe after 0.5 mins postinjection; assay type: ADME, organism-based, Macaca fascicularis; conditions: in vivo
[11] = Drug uptake in anesthetized cynomolgus monkey brain frontal lobe after 2.5 mins postinjection; assay type: ADME, organism-based, Macaca fascicularis; conditions: in vivo
[12] = Drug uptake in anesthetized cynomolgus monkey brain frontal lobe after 3.5 mins postinjection; assay type: ADME, organism-based, Macaca fascicularis; conditions: in vivo
[13] = Drug uptake in anesthetized cynomolgus monkey brain frontal lobe after 15.5 mins postinjection; assay type: ADME, organism-based, Macaca fascicularis; conditions: in vivo
[14] = Drug uptake in anesthetized cynomolgus monkey brain frontal lobe after 35 mins postinjection; assay type: ADME, organism-based, Macaca fascicularis; conditions: in vivo
[15] = Drug uptake in anesthetized cynomolgus monkey brain frontal lobe after 45 mins postinjection; assay type: ADME, organism-based, Macaca fascicularis; conditions: in vivo, 0.75 h
[16] = Drug uptake in anesthetized cynomolgus monkey brain frontal lobe after 75 mins postinjection; assay type: ADME, organism-based, Macaca fascicularis; conditions: in vivo, 1.25 h
[17] = Drug uptake in anesthetized cynomolgus monkey brain frontal lobe after 115 mins postinjection; assay type: ADME, organism-based, Macaca fascicularis; conditions: in vivo
[18] = Drug uptake in anesthetized cynomolgus monkey brain frontal lobe after 155 mins postinjection; assay type: ADME, organism-based, Macaca fascicularis; conditions: in vivo
[19] = Ratio of drug uptake in midbrain to cerebellum in anesthetized cynomolgus monkey after 235 mins postinjection; assay type: ADME, organism-based, Macaca fascicularis; conditions: in vivo
[20] = Ratio of drug uptake in pons to cerebellum in anesthetized cynomolgus monkey after 0.5 mins postinjection; assay type: ADME, organism-based, Macaca fascicularis; conditions: in vivo
[21] = test system: Putamen; experiment: Drug uptake in anesthetized cynomolgus monkey brain putamen after 215 mins postinjection; assay type: ADME, organism-based, Macaca fascicularis; conditions: in vivo
[22] = Ratio of drug uptake in occipital lobe to cerebellum in anesthetized cynomolgus monkey after 235 mins postinjection; assay type: ADME, organism-based, Macaca fascicularis; conditions: in vivo
[23] = test system: Midbrain; experiment: Drug uptake in anesthetized cynomolgus monkey brain midbrain after 145 mins postinjection; assay type: ADME, organism-based, Macaca fascicularis; conditions: in vivo
[24] = test system: Midbrain; experiment: Drug uptake in anesthetized cynomolgus monkey brain midbrain after 175 mins postinjection; assay type: ADME, organism-based, Macaca fascicularis; conditions: in vivo
[25] = test system: Pons; experiment: Drug uptake in anesthetized cynomolgus monkey brain pons after 2.5 mins postinjection; assay type: ADME, organism-based, Macaca fascicularis; conditions: in vivo
[26] = test system: Pons; experiment: Drug uptake in anesthetized cynomolgus monkey brain pons after 22.5 mins postinjection; assay type: ADME, organism-based, Macaca fascicularis; conditions: in vivo, 0.375 h
[27] = test system: Pons; experiment: Drug uptake in anesthetized cynomolgus monkey brain pons after 35 mins postinjection; assay type: ADME, organism-based, Macaca fascicularis; conditions: in vivo
[28] = test system: Pons; experiment: Drug uptake in anesthetized cynomolgus monkey brain pons after 55 mins postinjection; assay type: ADME, organism-based, Macaca fascicularis; conditions: in vivo
[29] = test system: Pons; experiment: Drug uptake in anesthetized cynomolgus monkey brain pons after 205 mins postinjection; assay type: ADME, organism-based, Macaca fascicularis; conditions: in vivo
[30] = Drug uptake in anesthetized cynomolgus monkey brain occipital lobe after 205 mins postinjection; assay type: ADME, organism-based, Macaca fascicularis; conditions: in vivo
[31] = Ratio of drug uptake in caudate to cerebellum in anesthetized cynomolgus monkey after 0.5 mins postinjection; assay type: ADME, organism-based, Macaca fascicularis; conditions: in vivo
[32] = test system: Putamen; experiment: Drug uptake in anesthetized cynomolgus monkey brain putamen after 195 mins postinjection; assay type: ADME, organism-based, Macaca fascicularis; conditions: in vivo, 3.25 h
[33] = Ratio of drug uptake in caudate to cerebellum in anesthetized cynomolgus monkey after 55 mins postinjection; assay type: ADME, organism-based, Macaca fascicularis; conditions: in vivo
[34] = test system: Medulla; experiment: Drug uptake in anesthetized cynomolgus monkey brain medulla after 2.5 mins postinjection; assay type: ADME, organism-based, Macaca fascicularis; conditions: in vivo
[35] = test system: Medulla; experiment: Drug uptake in anesthetized cynomolgus monkey brain medulla after 15.5 mins postinjection; assay type: ADME, organism-based, Macaca fascicularis; conditions: in vivo
[36] = test system: Medulla; experiment: Drug uptake in anesthetized cynomolgus monkey brain medulla after 22.5 mins postinjection; assay type: ADME, organism-based, Macaca fascicularis; conditions: in vivo, 0.375 h
[37] = test system: Medulla; experiment: Drug uptake in anesthetized cynomolgus monkey brain medulla after 45 mins postinjection; assay type: ADME, organism-based, Macaca fascicularis; conditions: in vivo, 0.75 h
[38] = Ratio of drug uptake in putamen to cerebellum in anesthetized cynomolgus monkey after 6.5 mins postinjection; assay type: ADME, organism-based, Macaca fascicularis; conditions: in vivo
[39] = Ratio of drug uptake in putamen to cerebellum in anesthetized cynomolgus monkey after 45 mins postinjection; assay type: ADME, organism-based, Macaca fascicularis; conditions: in vivo, 0.75 h
[40] = Octanol-water partition coefficient, log P at pH 7.4 by shake-flask method; assay type: physicochemical
[41] = Ratio of drug uptake in putamen to cerebellum in anesthetized cynomolgus monkey after 155 mins postinjection; assay type: ADME, organism-based, Macaca fascicularis; conditions: in vivo
[42] = test system: Medulla; experiment: Drug uptake in anesthetized cynomolgus monkey brain medulla after 225 mins postinjection; assay type: ADME, organism-based, Macaca fascicularis; conditions: in vivo, 3.75 h
[43] = test system: Medulla; experiment: Drug uptake in anesthetized cynomolgus monkey brain medulla after 235 mins postinjection; assay type: ADME, organism-based, Macaca fascicularis; conditions: in vivo
[44] = Drug uptake in anesthetized cynomolgus monkey brain cerebellum after 3.5 mins postinjection; assay type: ADME, organism-based, Macaca fascicularis; conditions: in vivo
[45] = Drug uptake in anesthetized cynomolgus monkey brain cerebellum after 45 mins postinjection; assay type: ADME, organism-based, Macaca fascicularis; conditions: in vivo, 0.75 h
[46] = Drug uptake in anesthetized cynomolgus monkey brain cerebellum after 75 mins postinjection; assay type: ADME, organism-based, Macaca fascicularis; conditions: in vivo, 1.25 h
[47] = Drug uptake in anesthetized cynomolgus monkey brain cerebellum after 85 mins postinjection; assay type: ADME, organism-based, Macaca fascicularis; conditions: in vivo
[48] = test system: Medulla; experiment: Drug uptake in anesthetized cynomolgus monkey brain medulla after 115 mins postinjection; assay type: ADME, organism-based, Macaca fascicularis; conditions: in vivo
[49] = Drug uptake in anesthetized cynomolgus monkey brain cerebellum after 165 mins postinjection; assay type: ADME, organism-based, Macaca fascicularis; conditions: in vivo, 2.75 h
[50] = Ratio of drug uptake in putamen to cerebellum in anesthetized cynomolgus monkey after 215 mins postinjection; assay type: ADME, organism-based, Macaca fascicularis; conditions: in vivo
[51] = test system: Caudate; experiment: Drug uptake in anesthetized cynomolgus monkey brain caudate after 4.5 mins postinjection; assay type: ADME, organism-based, Macaca fascicularis, Caudate nucleus; conditions: in vivo, 0.075 h
[52] = test system: Caudate; experiment: Drug uptake in anesthetized cynomolgus monkey brain caudate after 22.5 mins postinjection; assay type: ADME, organism-based, Macaca fascicularis, Caudate nucleus; conditions: in vivo, 0.375 h
[53] = test system: Caudate; experiment: Drug uptake in anesthetized cynomolgus monkey brain caudate after 27.5 mins postinjection; assay type: ADME, organism-based, Macaca fascicularis, Caudate nucleus; conditions: in vivo
[54] = test system: Caudate; experiment: Drug uptake in anesthetized cynomolgus monkey brain caudate after 115 mins postinjection; assay type: ADME, organism-based, Macaca fascicularis, Caudate nucleus; conditions: in vivo
[55] = test system: Caudate; experiment: Drug uptake in anesthetized cynomolgus monkey brain caudate after 215 mins postinjection; assay type: ADME, organism-based, Macaca fascicularis, Caudate nucleus; conditions: in vivo
[56] = Ratio of drug uptake in occipital lobe to cerebellum in anesthetized cynomolgus monkey after 0.5 mins postinjection; assay type: ADME, organism-based, Macaca fascicularis; conditions: in vivo
[57] = test system: Thalamus; experiment: Drug uptake in anesthetized cynomolgus monkey brain thalamus after 2.5 mins postinjection; assay type: ADME, organism-based, Macaca fascicularis; set-up: unit not given here; conditions: in vivo
[58] = test system: Putamen; experiment: Drug uptake in anesthetized cynomolgus monkey brain putamen after 12.5 mins postinjection; assay type: ADME, organism-based, Macaca fascicularis; set-up: unit not given here; conditions: in vivo
[59] = test system: Putamen; experiment: Drug uptake in anesthetized cynomolgus monkey brain putamen after 18.5 mins postinjection; assay type: ADME, organism-based, Macaca fascicularis; set-up: unit not given here; conditions: in vivo
[60] = test system: Putamen; experiment: Drug uptake in anesthetized cynomolgus monkey brain putamen after 95 mins postinjection; assay type: ADME, organism-based, Macaca fascicularis; set-up: unit not given here; conditions: in vivo
[61] = test system: Thalamus; experiment: Drug uptake in anesthetized cynomolgus monkey brain thalamus after 75 mins postinjection; assay type: ADME, organism-based, Macaca fascicularis; set-up: unit not given here; conditions: in vivo, 1.25 h
[62] = test system: Thalamus; experiment: Drug uptake in anesthetized cynomolgus monkey brain thalamus after 85 mins postinjection; assay type: ADME, organism-based, Macaca fascicularis; set-up: unit not given here; conditions: in vivo
[63] = test system: Thalamus; experiment: Drug uptake in anesthetized cynomolgus monkey brain thalamus after 155 mins postinjection; assay type: ADME, organism-based, Macaca fascicularis; set-up: unit not given here; conditions: in vivo
[64] = test system: Midbrain; experiment: Drug uptake in anesthetized cynomolgus monkey brain midbrain after 6.5 mins postinjection; assay type: ADME, organism-based, Macaca fascicularis; set-up: unit not given here; conditions: in vivo
[65] = test system: Midbrain; experiment: Drug uptake in anesthetized cynomolgus monkey brain midbrain after 12.5 mins postinjection; assay type: ADME, organism-based, Macaca fascicularis; set-up: unit not given here; conditions: in vivo
[66] = test system: Midbrain; experiment: Drug uptake in anesthetized cynomolgus monkey brain midbrain after 18.5 mins postinjection; assay type: ADME, organism-based, Macaca fascicularis; set-up: unit not given here; conditions: in vivo
[67] = test system: Midbrain; experiment: Drug uptake in anesthetized cynomolgus monkey brain midbrain after 35 mins postinjection; assay type: ADME, organism-based, Macaca fascicularis; set-up: unit not given here; conditions: in vivo
[68] = test system: Midbrain; experiment: Drug uptake in anesthetized cynomolgus monkey brain midbrain after 45 mins postinjection; assay type: ADME, organism-based, Macaca fascicularis; set-up: unit not given here; conditions: in vivo, 0.75 h
[69] = test system: Midbrain; experiment: Drug uptake in anesthetized cynomolgus monkey brain midbrain after 85 mins postinjection; assay type: ADME, organism-based, Macaca fascicularis; set-up: unit not given here; conditions: in vivo

SMILES: O=C(OCCC[18F])C1C2CCC(CC1c1cccc(/C=C\I)c1)N2 (centres undefined)
- Ratio [1]: 0.9
- Ratio [2]: 1.4
- Ratio [3]: 1.3
- Drug uptake [4]: 0.19
- Drug uptake [5]: 4
- Drug uptake [6]: 3.52
- Drug uptake [7]: 3.35
- Drug uptake [8]: 3.18
- Drug uptake [9]: 2.08
- Drug uptake [10]: 0
- Drug uptake [11]: 0.5
- Drug uptake [12]: 0.83
- Drug uptake [13]: 2.42
- Drug uptake [14]: 2.85
- Drug uptake [15]: 2.84
- Drug uptake [16]: 2.76
- Drug uptake [17]: 2.56
- Drug uptake [18]: 2.33
- Ratio [19]: 1.9
- Ratio [20]: 1.7
- Drug uptake [21]: 3.13
- Ratio [22]: 1
- Drug uptake [23]: 4.38
- Drug uptake [24]: 4.1
- Drug uptake [25]: 0.95
- Drug uptake [26]: 4.1
- Drug uptake [27]: 4.25
- Drug uptake [28]: 4.4
- Drug uptake [29]: 3.34
- Drug uptake [30]: 2.3
- Ratio [31]: 1
- Drug uptake [32]: 3.39
- Ratio [33]: 0.9
- Drug uptake [34]: 0.84
- Drug uptake [35]: 4.36
- Drug uptake [36]: 4.94
- Drug uptake [37]: 5.13
- Ratio [38]: 0.8
- Ratio [39]: 1.1
- logD [40]: 1.64
- Ratio [41]: 1.6
- Drug uptake [42]: 3.6
- Drug uptake [43]: 3.15
- Drug uptake [44]: 1.95
- Drug uptake [45]: 4.48
- Drug uptake [46]: 3.87
- Drug uptake [47]: 3.6
- Drug uptake [48]: 4.59
- Drug uptake [49]: 2.37
- Ratio [50]: 1.5
- Drug uptake [51]: 1.55
- Drug uptake [52]: 3.53
- Drug uptake [53]: 3.68
- Drug uptake [54]: 3.61
- Drug uptake [55]: 2.54
- Ratio [56]: 0.8
- Drug uptake [57]: 0.8
- Drug uptake [58]: 4.08
- Drug uptake [59]: 4.42
- Drug uptake [60]: 4.67
- Drug uptake [61]: 4.76
- Drug uptake [62]: 4.59
- Drug uptake [63]: 3.73
- Drug uptake [64]: 3.41
- Drug uptake [65]: 4.11
- Drug uptake [66]: 4.65
- Drug uptake [67]: 5.01
- Drug uptake [68]: 5.02
- Drug uptake [69]: 4.92
